IC50 data for twelve compounds are collected here from US12077539B2, “Imidazole and triazole KRAS inhibitors” (Incyte Corporation, priority 2021, dated 2024).

Experiment [1] has as its system MIA PaCa-2 (KRAS G12C) cells. The experiment in a line: Cellular pERK HTRF assay, KRAS_G12C pERK. The class given is cell-based. The following applies: Homo sapiens, 4 hours incubation, HTRF phospho-ERK 1/2, read-out: G12C_pERK (KRAS_G12C pERK assay IC50). The procedure:
MIA PaCa-2 (KRAS G12C; ATCC® CRL-1420), A427 (KRAS G12D; ATCC® HTB53), HPAF-II (KRAS G12D; ATCC® CRL-1997) and NCI-H838 (KRAS WT; ATCC® CRL-5844) cells are purchased from ATCC and maintained in RPMI 1640 media supplemented with 10% FBS (Gibco/Life Technologies). The cells are plated at 5000 cells per well (8 uL) into Greiner 384-well low volume, flat-bottom, tissue culture treated white plates and incubated overnight at 37° C., 5% CO2. The next morning, test compound stock solutions are diluted in media at 3× the final concentration, and 4 uL are added to the cells. The plate is mixed by gentle rotation for 30 seconds (250 rpm) at room temperature. The cells are incubated with the KRAS G12C and G12D compounds for 4 hours or 2 hours respectively at 37° C., 5% CO2.
4 uL of 4× lysis buffer with blocking reagent (1:25) (Cisbio) are added to each well and plates are rotated gently (300 rpm) for 30 minutes at room temperature. 4 uL per well of Cisbio anti Phospho-ERK 1/2 d2 is mixed with anti Phospho-ERK 1/2 Cryptate (1:1) are added to each well, mixed by rotation and incubated overnight in the dark at room temperature. Plates are read on the Pherastar plate reader at 665 nm and 620 nm wavelengths. IC50 determination is performed by fitting the curve of inhibitor percent inhibition versus the log of the inhibitor concentration using the GraphPad Prism 7 software.
For orientation: TR-FRET usually uses a lanthanide donor and a delayed reading to cut background.

The next experiment addresses KRAS G12C (Homo sapiens, UniProt P01116, G12C). The experiment in a line: GDP-GTP exchange assay, KRAS G12C (bodipy-GDP/GppNHp, SOS1). As to conditions: bodipy-loaded KRAS G12C 2.5 nM, 2 hours pre-incubation, 2 hours exchange with GppNHp and SOS1; read-out: G12C_exchange (KRAS_G12C exchange assay IC50). It counts as biochemical. The procedure: (§1) The inhibitor potency of the exemplified compounds was determined in a fluorescence based guanine nucleotide exchange assay, which measures the exchange of bodipy-GDP (fluorescently labeled GDP) for GppNHp (Non-hydrolyzable GTP analog) to generate the active state of KRAS in the presence of SOS1 (guanine nucleotide exchange factor). Inhibitors were serially diluted in DMSO and a volume of 0.1 μL was transferred to the wells of a black low volume 384-well plate. 5 μL/well volume of bodipy-loaded KRAS G12C diluted to 5 nM in assay buffer (25 mM Hepes pH 7.5, 50 mM NaCl, 10 mM MgCl2 and 0.01% Brij-35) was added to the plate and pre-incubated with inhibitor for 2 hours at ambient temperature. Appropriate controls (enzyme with no inhibitor or with a G12C inhibitor (AMG-510)) were included on the plate. The exchange was initiated by the addition of a 5 μL/well volume containing 1 mM GppNHp and 300 nM SOS1 in assay buffer. The 10 μL/well reaction concentration of the bodipy-loaded KRAS G12C, GppNHp, and SOS1 were 2.5 nM, 500 uM, and 150 nM, respectively. The reaction plates were incubated at ambient temperature for 2 hours, a time estimated for complete GDP-GTP exchange in the absence of inhibitor. For the KRAS G12D and G12V mutants, similar guanine nucleotide exchange assays were used with 2.5 nM as final concentration for the bodipy loaded KRAS proteins and with 4 hours and 3 hours incubation after adding GppNHp-SOS1 mixture for G12D and G12V respectively. A cyclic peptide described to selectively bind G12D mutant (Sakamoto et al., BBRC 484.3 (2017), 605-611) or internal compounds with confirmed binding were used as positive controls in the assay plates. Fluorescence intensities were measured on a PheraStar plate reader instrument (BMG Labtech) with excitation at 485 nm and emission at 520 nm.
Either GraphPad prism or XLfit was used to analyze the data. The IC50 values were derived by fitting the data to a four parameter logistic equation producing a sigmoidal dose-response curve with a variable Hill coefficient. Prism equation: Y=Bottom+(Top−Bottom)/(1+10^((Log IC50−X)*Hill slope)); XLfit equation: Y=(A+((B−A)/(1+((X/C)^D)))) where X is the logarithm of inhibitor concentration and Y is the response.

The next experiment addresses KRAS G12D (Homo sapiens, UniProt P01116, G12D). The experiment is described as follows: GDP-GTP exchange assay, KRAS G12D (bodipy-GDP/GppNHp, SOS1). It counts as biochemical. As to conditions: bodipy-loaded KRAS G12D 2.5 nM, 4 hours incubation after GppNHp-SOS1; read-out: G12D_exchange (KRAS_G12D exchange assay IC50). On the procedure: as §1, with “For the KRAS G12D and G12V mutants, similar guanine nucleotide exchange assays were used with 2.5 nM as final concentration for the bodipy loaded KRAS proteins and with 4 hours and 3 hours incubation after adding GppNHp-SOS1 mixture for G12D and G12V respectively. A cyclic peptide described to selectively bind G12D mutant (Sakamoto et al., BBRC 484.3 (2017), 605-611) or internal compounds with confirmed binding were used as positive controls in the assay plates.” left out, “nm. […]” for “nm.”

Some results are limits rather than exact numbers.

Chain of KRAS G12C (P01116 1-188 isoform P01116-2 G12C): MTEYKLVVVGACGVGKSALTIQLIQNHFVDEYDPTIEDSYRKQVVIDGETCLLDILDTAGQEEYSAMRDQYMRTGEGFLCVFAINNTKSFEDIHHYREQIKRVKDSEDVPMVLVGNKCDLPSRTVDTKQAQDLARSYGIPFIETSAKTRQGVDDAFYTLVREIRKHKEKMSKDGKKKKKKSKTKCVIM
Chain of KRAS G12D (P01116 1-188 isoform P01116-2 G12D): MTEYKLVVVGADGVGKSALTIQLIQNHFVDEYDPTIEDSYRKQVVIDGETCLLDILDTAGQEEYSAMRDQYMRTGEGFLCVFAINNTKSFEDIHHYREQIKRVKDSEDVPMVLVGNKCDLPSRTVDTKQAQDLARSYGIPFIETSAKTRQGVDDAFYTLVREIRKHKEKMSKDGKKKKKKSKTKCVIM

Usually IC50 stands for the midpoint of a concentration-inhibition curve. In the case of `C=CC(=O)N1CCC(n2cnc3c(-c4cccnc4C)nc4c(=O)n(-c5cccc6ccccc56)c(C(F)(F)F)cc4c32)C[C@H]1CC#N` (stereo partly drawn) [Example 7, 2-((2S)-1-acryloyl-4-(4-(2-methylpyridin-3-yl)-7-(naphthalen-1-yl)-6-oxo-8-(trifluoromethyl)-6,7-dihydro-1H-imidazo[4,5-c][1,7]naphthyridin-1-yl)piperidin-2-yl)acetonitrile], the 50% inhibitory concentration (IC50) (in experiment [1]; at KRAS G12C) was no more than 100 nM in each case.

Regarding `Cc1c(Cl)cccc1-n1c(C(F)(F)F)cc2c(nc(N3CC(C)(N(C)C)C3)c3nnn([C@H]4CCN(C(=O)/C=C/CF)[C@H](CC#N)C4)c32)c1=O` [Example 12, 2-((2S,4S)-4-(7-(3-chloro-2-methylphenyl)-4-(3-(dimethylamino)-3-methylazetidin-1-yl)-6-oxo-8-(trifluoromethyl)-6,7-dihydro-1H-[1,2,3]triazolo[4,5-c][1,7]naphthyridin-1-yl)-1-((E)-4-fluorobut-2-enoyl)piperidin-2-yl)acetonitrile], the IC50 (in experiment [1]; at KRAS G12C) was no more than 100 nM in each case.

With `C=CC(=O)N1CC[C@H](n2cnc3c(N4CC(N(C)C)C4)nc4c(c32)CCN(c2cccc3ccccc23)C4)C[C@H]1CC#N` [Example 4, 2-((2S,4S)-1-acryloyl-4-(4-(3-(dimethylamino)azetidin-1-yl)-7-(naphthalen-1-yl)-6,7,8,9-tetrahydro-1H-imidazo[4,5-c][1,7]naphthyridin-1-yl)piperidin-2-yl)acetonitrile], the IC50 at KRAS G12C is 100 to 1000 nM.

Regarding `C=CC(=O)N1CC[C@H](n2nnc3c(N4CC(C)(N(C)C)C4)nc4c(=O)n(-c5cccc(Cl)c5C)c(C(F)(F)F)cc4c32)C[C@H]1CC#N` [Example 11, 2-((2S,4S)-1-acryloyl-4-(7-(3-chloro-2-methylphenyl)-4-(3-(dimethylamino)-3-methylazetidin-1-yl)-6-oxo-8-(trifluoromethyl)-6,7-dihydro-1H-[1,2,3]triazolo[4,5-c][1,7]naphthyridin-1-yl)piperidin-2-yl)acetonitrile], the IC50 (in experiment [1]; at KRAS G12C) was no more than 100 nM each time.

For `CNCCc1nc2c(N3CC(N(C)C)C3)nc3c(=O)n(-c4cc(O)cc5ccccc45)ccc3c2n1[C@H]1[C@H]2CN[C@@H]1C2` (racemic) [Example 3, 1-((1R,4R,5S)-2-azabicyclo[2.1.1]hexan-5-yl)-4-(3-(dimethylamino)azetidin-1-yl)-7-(3-hydroxynaphthalen-1-yl)-2-(2-(methylamino)ethyl)-1,7-dihydro-6H-imidazo[4,5-c][1,7]naphthyridin-6-one], the IC50 at KRAS G12D was 100 to 1000 nM.

Take `CC#CC(=O)N1CC[C@H](n2cnc3c(N4CC(N(C)C)C4)nc4c(=O)n(-c5cc(O)cc6ccccc56)ccc4c32)C[C@H]1CC#N` [Example 2, 2-((2S,4S)-1-(but-2-ynoyl)-4-(4-(3-(dimethylamino)azetidin-1-yl)-7-(3-hydroxynaphthalen-1-yl)-6-oxo-6,7-dihydro-1H-imidazo[4,5-c][1,7]naphthyridin-1-yl)piperidin-2-yl)acetonitrile]: the IC50 in experiment [1] was 1000 to 5000 nM; at KRAS G12C it was no more than 100 nM.

Take `C=CC(=O)N1CC[C@H](n2cnc3c(N4CC(N(C)C)C4)nc4c(c32)CCN(c2cc(O)cc3ccccc23)C4)C[C@H]1CC#N` [Example 5, 2-((2S,4S)-1-acryloyl-4-(4-(3-(dimethylamino)azetidin-1-yl)-7-(3-hydroxynaphthalen-1-yl)-6,7,8,9-tetrahydro-1H-imidazo[4,5-c][1,7]naphthyridin-1-yl)piperidin-2-yl)acetonitrile]: the IC50 is 1000 to 5000 nM in experiment [1] and no more than 100 nM at KRAS G12C.

With `C=CC(=O)N1CC[C@H](n2cnc3c(N4CC(N(C)C)C4)nc4c(=O)n(-c5cccc6ccccc56)c(C(F)(F)F)cc4c32)C[C@H]1CC#N` [Example 6, 2-((2S,4S)-1-acryloyl-4-(4-(3-(dimethylamino)azetidin-1-yl)-7-(naphthalen-1-yl)-6-oxo-8-(trifluoromethyl)-6,7-dihydro-1H-imidazo[4,5-c][1,7]naphthyridin-1-yl)piperidin-2-yl)acetonitrile], the IC50 (in experiment [1]; on KRAS G12C) was no more than 100 nM in each case.

As to `CC#CC(=O)N1CC[C@H](n2cnc3c(O[C@@H](C)[C@@H]4CCCN4C)nc4c(=O)n(-c5cccc(Cl)c5C)c(C(F)(F)F)cc4c32)C[C@H]1CC#N` [Example 9, 2-((2S,4S)-1-(but-2-ynoyl)-4-(7-(3-chloro-2-methylphenyl)-4-((S)-1-((S)-1-methylpyrrolidin-2-yl)ethoxy)-6-oxo-8-(trifluoromethyl)-6,7-dihydro-1H-imidazo[4,5-c][1,7]naphthyridin-1-yl)piperidin-2-yl)acetonitrile], the IC50 (in experiment [1]; at KRAS G12C) was no more than 100 nM in each case.

Take `C=CC(=O)N1CC[C@H](n2cnc3c(N4CC(N(C)C)C4)nc4c(=O)n(-c5cc(O)cc6ccccc56)ccc4c32)C[C@H]1CC#N` [Example 1, 2-((2S,4S)-1-acryloyl-4-(4-(3-(dimethylamino)azetidin-1-yl)-7-(3-hydroxynaphthalen-1-yl)-6-oxo-6,7-dihydro-1H-imidazo[4,5-c][1,7]naphthyridin-1-yl)piperidin-2-yl)acetonitrile]: the half-maximal inhibitory concentration (IC50) was 1000 to 5000 nM in experiment [1] and no more than 100 nM on KRAS G12C.

`C=CC(=O)N1CC[C@H](n2cnc3c(O[C@@H](C)[C@@H]4CCCN4C)nc4c(=O)n(-c5cccc(Cl)c5C)c(C(F)(F)F)cc4c32)C[C@H]1CC#N` [Example 8, 2-((2S,4S)-1-acryloyl-4-(7-(3-chloro-2-methylphenyl)-4-((S)-1-((S)-1-methylpyrrolidin-2-yl)ethoxy)-6-oxo-8-(trifluoromethyl)-6,7-dihydro-1H-imidazo[4,5-c][1,7]naphthyridin-1-yl)piperidin-2-yl)acetonitrile]: the IC50 (in experiment [1]; on KRAS G12C) was no more than 100 nM throughout.

As for `C=C(F)C(=O)N1CC[C@H](n2cnc3c(O[C@@H](C)[C@@H]4CCCN4C)nc4c(=O)n(-c5cccc(Cl)c5C)c(C(F)(F)F)cc4c32)C[C@H]1CC#N` [Example 10, 2-((2S,4S)-4-(7-(3-chloro-2-methylphenyl)-4-((S)-1-((S)-1-methylpyrrolidin-2-yl)ethoxy)-6-oxo-8-(trifluoromethyl)-6,7-dihydro-1H-imidazo[4,5-c][1,7]naphthyridin-1-yl)-1-(2-fluoroacryloyl)piperidin-2-yl)acetonitrile], the IC50 in experiment [1] is 100 to 1000 nM; on KRAS G12C it was no more than 100 nM.
